Source: US6121285A, “Substituted aminocycloalkylpyrrolidine derivatives and cis-substituted aminocycloalkylpyrrolidine derivatives” (Daiichi Pharmaceutical Co., Ltd., priority 1995, dated 2000)
In brackets after ≈: the same amount, converted by molar mass. Where two headings read alike, the source gives them in different places.

Columns and labels:
[1] = system: Slc:ddy five week male mice; test: Acute toxicity, intravenous administration to mice; type: in vivo; conditions: for acute toxicity result in words: same test as cis/trans (cis: 0/5 deaths); for Number of death: hydrochloride in distilled water
Experimental: A solution of 5-amino-7-[4-(R)-(1-aminocyclopropyl)-3-(S)-fluoro-1-pyrrolidinyl]-6-fluoro-1-[2-(S)-fluoro-1-(R)-cyclopropyl]-1,4-dihydro-8-methyl-4-oxoquinoline-3-carboxylic acid (abbreviated as cis) hydrochloride of Example 15 or 5-amino-7-[4-(R)-(1-aminocyclopropyl)-3-(R)-fluoro-1-pyrrolidinyl]-6-fluoro-1-[2-(S)-fluoro-1-(R)-cyclopropyl]-1,4-dihydro-8-methyl-4-oxoquinoline-3-carboxylic acid (abbreviated as trans) hydrochloride in distilled water for injection was administered intravenously to Slc:ddy five week male mice (five mice per group) and the symptoms are observed.

E. coli, NIHJ = test: Antimicrobial activity (MIC), standard method of the Japan Society of Chemotherapy; type: cell-based
Experimental: (§1) Examples of the first and second aspects of the present invention are given below by way of illustration and not by way of limitation. In-this regard, the antibacterial and antimicrobial activities of the compounds of interest were measured in accordance with the standard method specified by the Japan Society of Chemotherapy. The results are shown in Tables 1 to 5 as a minimum inhibitory concentration (MIC,μg/ml). Unless otherwise indicated, all percents (%) are by weight.

Pr. mirabilis, IFO-3849 = test: as above; type: cell-based
Experimental: as §1

Pr. vulgaris, 08601 = test: as above; type: cell-based; conditions: for MIC: Proteus vulgaris, read-out: minimum inhibitory concentration (MIC)
Experimental: as §1

Ps. aeruginosa, 32104 = test: as above; type: cell-based; conditions: for minimum inhibitory concentration (MIC): Ps. aeruginosa
Experimental: as §1

Ps. aeruginosa, 32121 = test: as above; type: cell-based
Experimental: as §1

[2] = system: Ps. maltophilia, IID-1275; test: as above; type: cell-based
Experimental: as §1

S. aureus, 209P = test: as above; type: cell-based
Experimental: as §1

S. aureus, 870307 = test: as above; type: cell-based
Experimental: as §1

S. epidermidis, 56500 = test: as above; type: cell-based
Experimental: as §1

S. flexneli, 2A 5503 = test: as above; type: cell-based; conditions: for minimum inhibitory concentration (MIC): S. flexneli, 2A 5503
Experimental: as §1

Ser. marcescens, 10100 = test: as above; type: cell-based
Experimental: as §1

[3] = system: Str. faecalis, ATCC-19433; test: as above; type: cell-based
Experimental: as §1

Str. pyogenes, G-36 = test: as above; type: cell-based
Experimental: as §1

[4] = Staphylococcus aureus, read-out: minimum inhibitory concentration (MIC)
[5] = Staphylococcus epidermidis, S. epidermidis, 56500, read-out: minimum inhibitory concentration (MIC)
[6] = 150 mg/kg, * = test stopped when second mouse died

Cc1c(N2C[C@@H](CO)[C@@H](C3(N)CC3)C2)c(F)c(N)c2c(=O)c(C(=O)O)cn(C3CC3)c12 (relative stereo) [Example 14, 5-Amino-7-[cis-4-(1-aminocyclopropyl)-3-hydroxymethyl-1-pyrrolidinyl]-1-cyclopropyl-6-fluoro-1,4-dihydro-8-methyl-4-oxoquinoline-3-carboxylic acid]
acute toxicity result in words ([1]; 150 mg/kg): same result

Cc1c(N2C[C@@H](F)[C@@H](C3(N)CCC3)C2)c(F)c(N)c2c(=O)c(C(=O)O)cn([C@@H]3C[C@@H]3F)c12 (single isomer, unassigned; isomer b) [Example 13]
minimum inhibitory concentration (MIC) (E. coli, NIHJ): ≤ 0.003 µg/mL
minimum inhibitory concentration (MIC) (Pr. mirabilis, IFO-3849): 0.05 µg/mL (≈ 0.111 µM)
minimum inhibitory concentration (MIC) (Pr. vulgaris, 08601): 0.025 µg/mL (≈ 0.0555 µM)
minimum inhibitory concentration (MIC) (Ps. aeruginosa, 32104): 0.20 µg/mL (≈ 0.444 µM)
minimum inhibitory concentration (MIC) (Ps. aeruginosa, 32121): 0.10 µg/mL (≈ 0.222 µM)
minimum inhibitory concentration (MIC) [2]: 0.20 µg/mL (≈ 0.444 µM)
minimum inhibitory concentration (MIC) (S. aureus, 209P): ≤ 0.003 µg/mL
minimum inhibitory concentration (MIC) (S. aureus, 870307): 0.05 µg/mL (≈ 0.111 µM)
minimum inhibitory concentration (MIC) (S. epidermidis, 56500; S. epidermidis, 56500): 0.006 µg/mL (≈ 0.0133 µM)
minimum inhibitory concentration (MIC) (S. flexneli, 2A 5503): 0.006 µg/mL (≈ 0.0133 µM)
minimum inhibitory concentration (MIC) (Ser. marcescens, 10100): 0.20 µg/mL (≈ 0.444 µM)
minimum inhibitory concentration (MIC) [3]: 0.025 µg/mL (≈ 0.0555 µM)
minimum inhibitory concentration (MIC) (Str. pyogenes, G-36): 0.006 µg/mL (≈ 0.0133 µM)
acute toxicity result in words ([1]; 150 mg/kg): same result

Cc1c(N2C[C@H](C)[C@@H](C3(N)CC3)C2)c(F)c(N)c2c(=O)c(C(=O)O)cn([C@@H]3C[C@@H]3F)c12 [Example 3, 5-Amino-7-[(3R,4R)-3-(1-aminocyclopropyl)-4-methyl-1-pyrrolidinyl]-6-fluoro-1-[(1R,2S)-2-fluorocyclopropyl]-1,4-dihydro-8-methyl-4-oxoquinoline-3-carboxylic acid]
MIC (E. coli, NIHJ; Escherichia coli, read-out: minimum inhibitory concentration (MIC)): ≤ 0.003 µg/mL
MIC (Pr. mirabilis, IFO-3849; Proteus mirabilis, IFO3849, read-out: minimum inhibitory concentration (MIC)): 0.05 µg/mL (≈ 0.116 µM)
MIC (Pr. vulgaris, 08601): 0.025 µg/mL (≈ 0.0578 µM)
MIC (Ps. aeruginosa, 32104; Pseudomonas aeruginosa, 32104, Ps. aeruginosa, read-out: minimum inhibitory concentration (MIC)): 0.2 µg/mL (≈ 0.462 µM)
MIC (Ps. aeruginosa, 32121; Pseudomonas aeruginosa, read-out: minimum inhibitory concentration (MIC)): 0.1 µg/mL (≈ 0.231 µM)
MIC ([2]; Stenotrophomonas maltophilia, IID1275, read-out: minimum inhibitory concentration (MIC)): 0.1 µg/mL (≈ 0.231 µM)
MIC (S. aureus, 209P; [4]): ≤ 0.003 µg/mL
MIC (S. aureus, 870307; [4]): 0.025 µg/mL (≈ 0.0578 µM)
MIC (S. epidermidis, 56500; [5]): ≤ 0.003 µg/mL
MIC (S. flexneli, 2A 5503; read-out: minimum inhibitory concentration (MIC), S. flexneli, 2A 5503): ≤ 0.003 µg/mL
MIC (Ser. marcescens, 10100; Serratia marcescens, read-out: minimum inhibitory concentration (MIC)): 0.1 µg/mL (≈ 0.231 µM)
MIC ([3]; Enterococcus faecalis, ATCC19433, read-out: minimum inhibitory concentration (MIC)): 0.025 µg/mL (≈ 0.0578 µM)
MIC (Str. pyogenes, G-36; Streptococcus pyogenes, G36, read-out: minimum inhibitory concentration (MIC)): ≤ 0.003 µg/mL

Cc1c(N2C[C@H](F)[C@@H](C3(N)CC3)C2)c(F)c(N)c2c(=O)c(C(=O)O)cn([C@@H]3C[C@@H]3F)c12.Cl [Example 5, 5-Amino-7-[4-(R)-(1-aminocyclopropyl)-3-(R)-fluoro-1-pyrrolidinyl]-6-fluoro-1-[2-(S)-fluoro-1-(R)-cyclopropyl]-1,4-dihydro-8-methyl-4-oxoquinoline-3-carboxylic acid hydrochloride]
MIC (S. epidermidis, 56500; [5]): ≤ 0.003 µg/mL
Number of death ([1]; 50 mg/kg): 0/5
Number of death ([1]; 100 mg/kg, * = test stopped when second mouse died): 2/2
Number of death [1, 6]: 2/2

COc1c(N2C[C@@H](F)[C@@H](C3(N)CC3)C2)c(F)cc2c(=O)c(C(=O)O)cn([C@@H]3C[C@@H]3F)c12 [Example 12, 7-[4-(R)-(1-Aminocyclopropyl)-3-(S)-fluoro-1-pyrrolidinyl]-6-fluoro-1-[2-(S)-fluoro-1-(R)-cyclopropyl]-1,4-dihydro-8-methoxy-4-oxoquinoline-3-carboxylic acid]
MIC (Pr. vulgaris, 08601): 0.006 µg/mL (≈ 0.0137 µM)
minimum inhibitory concentration (MIC) (Ps. aeruginosa, 32104; listed as 18): 0.20 µg/mL (≈ 0.457 µM)
minimum inhibitory concentration (MIC) (S. flexneli, 2A 5503): 0.013 µg/mL (≈ 0.0297 µM)
minimum inhibitory concentration (MIC) (S. flexneli, 2A 5503; listed as 18): 0.006 µg/mL (≈ 0.0137 µM)
acute toxicity result in words ([1]; 150 mg/kg): same result

Cc1c(N2C[C@@H](F)[C@@H](C3(N)CC3)C2)c(F)c(N)c2c(=O)c(C(=O)O)cn([C@@H]3C[C@@H]3F)c12.Cl [Example 15, 5-Amino-7-[4-(R)-(1-aminocyclopropyl)-3-(S)-fluoro-1-pyrrolidinyl]-6-fluoro-1-[2-(S)-fluoro-1-(R)-cyclopropyl]-1,4-dihydro-8-methyl-4-oxoquinoline-3-carboxylic acid hydrochloride]
Number of death [1, 6]: 0/5

COc1c(N2C[C@@H](F)[C@@H](C3(N)CC3)C2)c(F)c(N)c2c(=O)c(C(=O)O)cn([C@@H]3C[C@@H]3F)c12 [Example 16, 5-Amino-7-[4-(R)-(1-aminocyclopropyl)-3-(S)-fluoro-1-pyrrolidinyl]-6-fluoro-1-[2-(S)-fluoro-1-(R)-cyclopropyl]-1,4-dihydro-8-methoxy-4-oxoquinoline-3-carboxylic acid]
acute toxicity result in words ([1]; 150 mg/kg): same result

C[C@H]1COc2c(N3C[C@@H](F)[C@@H](C4(N)CC4)C3)c(F)cc3c(=O)c(C(=O)O)cn1c23 [Example 17, 10-[4-(R)-(1-Aminocyclopropyl)-3-(S)-fluoro-1-pyrrolidinyl]-9-fluoro-2,3-dihydro-3-(S)-methyl-7-oxo-7H-pyrido[1,2,3-de][1,4]benzoxazine-6-carboxylic acid]
acute toxicity result in words ([1]; 150 mg/kg): same result

C[C@H]1COc2c(N3C[C@@H](F)[C@@H](C4(N)CC4)C3)c(F)c(N)c3c(=O)c(C(=O)O)cn1c23 [Example 21, 8-Amino-10-[4-(R)-(1-aminocyclopropyl)-3-(S)-fluoro-1-pyrrolidinyl]-9-fluoro-2,3-dihydro-3-(S)-methyl-7-oxo-7H-pyrido[1,2,3-de][1,4]benzoxazine-6-carboxylic acid]
MIC (S. epidermidis, 56500; Staphylococcus epidermidis, 56500, read-out: minimum inhibitory concentration (MIC)): 0.013 µg/mL (≈ 0.0309 µM)
acute toxicity result in words ([1]; 150 mg/kg): same result
